Assay: Cytotoxicity against human NCI60 cells
Assay type: functional

## CC1(C)CC(C23C=CC(CO)(CC2)OO3)CCC1Br (mixture of isomers) [MAJAPOLENE A]
  GI50: 400 nM
  TGI: 900 nM
read-out: LC50 (the source's name)
  CC50: 2800 nM

— ChEMBL document CHEMBL1150097, “Majapolene A, a cytotoxic peroxide, and related sesquiterpenes from the red alga Laurencia majuscula” (1995)
